The values below come from US7708999B2, “Remedies for arthritis” (Kyowa Hakko Kirin Co., Ltd., priority 2001, dated 2010).

Assay [1] deals with rat adjuvant arthritis model. Description: Rat adjuvant arthritis model. Type of assay: in vivo. The conditions noted are these: for Bone destruction score / Bone destruction score (% inhibition): Table 2; for Bone destruction score: soft X-ray of calcaneus, adjuvant-untreated paw, day 21, maximum 5, mean ± standard error, oral comparators; for Bone destruction score (% inhibition) / inhibition of the increase in paw volume, adjuvant-untreated paw: vs solvent group; for inhibition of the increase in paw volume, adjuvant-untreated paw: day 21, oral, 1 mL per 100 g: sodium diclofenac 0.3 mg/mL, methotrexate 0.01 mg/mL, prednisolone 0.3 mg/mL; for inhibition of the increase (decrease) in amount of glycosaminoglycan in urine / inhibition of the increase (decrease) in amount of deoxypyridinoline in urine: urine day 20 to 21, oral comparators vs solvent group; for inhibition of the increase (decrease) in amount of glycosaminoglycan in urine: diclofenac and prednisolone not significant; for inhibition of the increase (decrease) in amount of deoxypyridinoline in urine: methotrexate and prednisolone not significant. The method, then: The rat adjuvant arthritis model was performed in the following manner according to the method of Pearson et al. (Pearson CM. et al., Arthritis Rheum., 5, 654-658, 1962) using Lewis rats (female, 8 weeks old, Japan Charles River).
Mycobacterium butyricum (manufactured by Difco) was suspended in a liquid paraffin (manufactured by Wako Pure Chemical Industries, Ltd.) to a final concentration of 6 mg/mL, and sterilized with a autoclave. The resulting solution was intradermally injected into the rat right hind pad in an amount of 100 μL for sensitization. One group consisted of 8 to 10 rats. Anti-FGF-8 neutralizing antibody KM1334 was dissolved in saline to a final concentration of 2 mg/mL. The solution was intraperitoneally administered to a KM1334 administrated group once a day at a dose of 0.5 mL per 100 g of the body weight for each rat on the sensitization day of the rat adjuvant arthritis model and on days 3, 7, 10, 14 and 17 from the sensitization. To saline administrated group, only saline was intraperitoneally administered instead of the anti-FGF-8 neutralizing antibody KM1334 solution. Further, sodium diclofenac, an antiinflammatory agent, was dissolved in a 0.5 w/v % methyl cellulose solution to a final concentration of 0.3 mg/mL, and the solution was orally administered to a sodium diclofenac administrated group as a positive control once a day at a dose of 1 mL per 100 g of the body weight on days 4, 7 to 11 and 14 to 18 from the adjuvant sensitization day. 50 mg of methotrexate® for injection (manufactured by Wyeth Japan) as a metabolic antagonist was dissolved in a 0.5 w/v % methyl cellulose solution to a final concentration of 0.01 mg/mL, and the solution was administered to a methotrexate administrated group in the same manner as in the sodium diclofenac administrated group. Prednisolone (manufactured by Sigma-Aldrich), a steroidal agent, was suspended in a 0.5 w/v % methyl cellulose solution to a final concentration of 0.3 mg/mL, and the suspension was administered to a prednisolone administrated group in the same manner as in the sodium diclofenac administrated group. Further, a 0.5 w/v % methyl cellulose solution alone was orally administered to a solvent administrated group in the same manner. An untreated group was used, and it was not subjected to sensitization with Mycobacterium butyricum and administration of an agent. The volumes of the adjuvant-treated paw and the adjuvant-untreated paw were measured as time goes by using a device for measuring edemas of rat hind paw (TK-101, manufactured by Unicom).
Using urine collected for 24 hours at day 20 and day 21 after the sensitization, the amounts of glycosaminoglycan, deoxypyridinoline, hydroxyproline and creatinine in urine were measured. The amount of glycosaminoglycan in urine was measured by the DMMB method described in Example 1. The amount of hydroxyproline in urine was measured by the method of Ikeda et al. (Ikeda Shingo et al., Tokyo Eiken Nenpo, 36 277-282, 1985). That is, 0.8 mL of hydrochloric acid for amino acid analysis (manufactured by Kanto Kagaku) was added to 0.8 mL of urine to hydrolyze at 110° C. for 15 hours. To 0.5 mL of the hydrolyzed sample was added 2 mL of a 1.2 mol/L sodium hydroxide solution for neutralization. 1 mL of isopropanol was added to 0.5 mL of the neutralized sample, and 1 ml of an oxidant solution was added. The mixture was stirred well, and allowed to stand at room temperature for 5 minutes. […]

Assay [2] has as its target T1, compound 1 as a partial peptide of FGF-8 (Homo sapiens, UniProt P55075).
T1 construct: 17; made in house; host or cells: chemical synthesis
T1 sequence (P55075 with tags, fused parts or gaps isoform P55075-3 limits assumed): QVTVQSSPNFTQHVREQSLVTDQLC
Description: FGF-8 binding activity by BIAcore 2000, immobilized biotin-labeled compound 1. The conditions noted are these: antibody 16.7 μg/mL; FGF-8 peptide immobilized 35 RU. The method, then: In order to examine the FGF-8 binding activity of the anti-FGF-8 neutralizing CDR-grafted antibodies obtained in 5. of Reference Example 3, the FGF-8 binding activity of the various anti-FGF-8 neutralizing CDR-grafted antibodies was measured and compared through BIAcore 2000 using compound 1 as a partial peptide of FGF-8 with the C terminal labeled with biotin in the following manner. The anti-FGF-8 neutralizing chimeric antibody KM3034 derived from CHO/DG44 cells obtained in 3. (1) of Reference Example 1 was used as a positive control.
HBS-EP was used as a sample diluent and a buffer during measurement. First, Sensor Chip SA (manufactured by BIACORE) was installed, and 5 μL of compound 1 labeled with biotin which had been adjusted to 0.05 μg/mL was added at a flow rate of 5 μL/min. Then, 5 μL of a 10 mmol/L glycine-hydrochloride solution (pH 1.5) was added twice continuously to wash the tip surface. The immobilization amount of the FGF-8 peptide was 35 RU.
60 μL of each of the antibody solutions was added to an FGF-8 peptide immobilized flow cell at a flow rate of 20 μL/min, and the dissociation reaction was then monitored for 3 minutes. After the dissociation reaction, 20 μL of 10 mmol/L glycine-hydrochloride solution (pH 1.5) was added twice continuously to regenerate the chip surface. This cycle was performed on the antibody solution at various concentrations (from 50 to 1.85 μg/mL) to obtain sensor grams at various concentrations. The sensor grams of the respective antibodies were converted to sensor grams of specific reactions by deduceing a sensor gram obtained using the chimeric antibody KM871 to GD3 as a negative control.

`CN(Cc1cnc2nc(N)nc(N)c2n1)c1ccc(C(=O)N[C@@H](CCC(=O)O)C(=O)O)cc1` [methotrexate]: in assay [1], the Bone destruction score is recorded as 0.9 ± 0.4; the “Bone destruction score (% inhibition)” value was 80%; the “inhibition of the increase in paw volume, adjuvant-untreated paw” value is 90%; the “inhibition of the increase (decrease) in amount of glycosaminoglycan in urine” value turned out to be 79%. Also, the “inhibition of the increase (decrease) in amount of deoxypyridinoline in urine” value in assay [1] amounted to 34%.

Regarding `C[C@]12C=CC(=O)C=C1CC[C@@H]1[C@@H]2[C@@H](O)C[C@@]2(C)[C@H]1CC[C@]2(O)C(=O)CO` [prednisolone, Prednisolone], in assay [1], the Bone destruction score is recorded as 1.8 ± 0.7; the “Bone destruction score (% inhibition)” value is 61%; the “inhibition of the increase in paw volume, adjuvant-untreated paw” value is listed as 51%; the “inhibition of the increase (decrease) in amount of glycosaminoglycan in urine” value stood at 18%. Moreover, the “inhibition of the increase (decrease) in amount of deoxypyridinoline in urine” value in assay [1] turned out to be 38%.

B1: KM3034: anti-FGF-8 neutralizing human chimeric antibody, VH SEQ ID NO. 5, VL SEQ ID NO. 6, human γ1/κ, CHO/DG44 cell-derived (FERM BP-7836) (antibody, listed as Mus musculus, V domains shown)
VH: QVQLQQSGAEVARPGASVKLSCKASGYTFTDYYLNWVKQRSGQGLEWIGEIDPGSDSIYYNENLEGRATLTADKSSSTAYMQLNSLTSEDSAVYFCARYGYSRYDVRFVYWGQGTLVTVST
VL: DVLMTQTPLSLPVSLGDQASISCRSSQSLVHSNGRTYLEWYLQKPGQSPKVLIYKVSNRISGVPDRFSGSGSGTDFTLKISRVEAEDLGVYFCFQGSHVPYTFGGGTKLEIK
Consider B1, for which the “binding reaction [resonance signal (RU)]” value in assay [2] was “the highest binding reaction”.

B2: HV0LV3-2/CHO: CHO/DG44 cell-derived anti-FGF-8 neutralizing CDR-grafted antibody, VH HV.0, VL LV.3-2 (SEQ ID NO. 45) (antibody, V domains shown)
VH: QVQLVQSGAEVKKPGASVKVSCKASGYTFTDYYLNWVRQAPGQGLEWMGEIDPGSDSIYYNENLEGRVTITADTSTSTAYMELSSLRSEDTAVYYCARYGYSRYDVRFVYWGQGTLVTVSS
VL: DIVMTQSPLSLPVSLGEPASISCRSSQSLVHSNGRTYLEWYLQKPGQSPQLLIYKVSNRISGVPDRFSGSGSGTDFTLKISRVEAEDVGVYFCFQGSHVPYTFGQGTKVEIK
B2: the “binding reaction [resonance signal (RU)]” value in assay [2] is given as “the lower binding reaction”.

B3: HV0LV4-2/CHO: CHO/DG44 cell-derived anti-FGF-8 neutralizing CDR-grafted antibody, VH HV.0, VL LV.4-2 (SEQ ID NO. 43) (antibody, V domains shown)
VH: QVQLVQSGAEVKKPGASVKVSCKASGYTFTDYYLNWVRQAPGQGLEWMGEIDPGSDSIYYNENLEGRVTITADTSTSTAYMELSSLRSEDTAVYYCARYGYSRYDVRFVYWGQGTLVTVSS
VL: DVVMTQSPLSLPVSLGEPASISCRSSQSLVHSNGRTYLEWYLQKPGQSPQLLIYKVSNRISGVPDRFSGSGSGTDFTLKISRVEAEDVGVYFCFQGSHVPYTFGQGTKVEIK
On to B3, for which the “binding reaction [resonance signal (RU)]” value in assay [2] was “the lower binding reaction”.

B4: HV0LV6/CHO: CHO/DG44 cell-derived anti-FGF-8 neutralizing CDR-grafted antibody, VH HV.0 (SEQ ID NO. 18), VL LV.6 (SEQ ID NO. 21) (antibody, V domains shown)
VH: QVQLVQSGAEVKKPGASVKVSCKASGYTFTDYYLNWVRQAPGQGLEWMGEIDPGSDSIYYNENLEGRVTITADTSTSTAYMELSSLRSEDTAVYYCARYGYSRYDVRFVYWGQGTLVTVSS
VL: DVVMTQSPLSLPVSLGEPASISCRSSQSLVHSNGRTYLEWYLQKPGQSPKVLIYKVSNRISGVPDRFSGSGSGTDFTLKISRVEAEDVGVYFCFQGSHVPYTFGQGTKVEIK
modifications: HV.0, a designed amino acid sequence of VH of an anti-FGF-8 CDR-grafted neutralizing antibody; LV.6, a designed amino acid sequence of VL of an anti-FGF-8 CDR-grafted neutralizing antibody
Take B4: the “binding reaction [resonance signal (RU)]” value in assay [2] is on record as “the highest binding reaction”.

B5: HV0LV2-2/CHO: CHO/DG44 cell-derived anti-FGF-8 neutralizing CDR-grafted antibody, VH HV.0, VL LV.2-2 (SEQ ID NO. 47) (antibody, V domains shown)
VH: QVQLVQSGAEVKKPGASVKVSCKASGYTFTDYYLNWVRQAPGQGLEWMGEIDPGSDSIYYNENLEGRVTITADTSTSTAYMELSSLRSEDTAVYYCARYGYSRYDVRFVYWGQGTLVTVSS
VL: DVVMTQSPLSLPVTPGEPASISCRSSQSLVHSNGRTYLEWYLQKPGQSPQLLIYKVSNRISGVPDRFSGSGSGTDFTLKISRVEAEDVGVYFCFQGSHVPYTFGQGTKVEIK
On to B5, for which the “binding reaction [resonance signal (RU)]” value in assay [2] is listed as “the lower binding reaction”.

B6: HV0LV0/CHO: CHO/DG44 cell-derived anti-FGF-8 neutralizing CDR-grafted antibody, VH HV.0, VL LV.0 (antibody, V domains shown)
VH: QVQLVQSGAEVKKPGASVKVSCKASGYTFTDYYLNWVRQAPGQGLEWMGEIDPGSDSIYYNENLEGRVTITADTSTSTAYMELSSLRSEDTAVYYCARYGYSRYDVRFVYWGQGTLVTVSS
VL: DIVMTQSPLSLPVTPGEPASISCRSSQSLVHSNGRTYLEWYLQKPGQSPQLLIYKVSNRISGVPDRFSGSGSGTDFTLKISRVEAEDVGVYYCFQGSHVPYTFGQGTKVEIK
Consider B6, for which the “binding reaction [resonance signal (RU)]” value in assay [2] is “the lowest binding reaction”.
